Measurements published in publication PMC4715021, “^177Lu-labelled macrocyclic bisphosphonates for targeting bone metastasis in cancer treatment” (EJNMMI Research, 2016).
Where “and” joins values, the source holds several entries; their conditions need not be identical. Identical values can stand only once.

Experiments:
[1] = Ex vivo biodistribution of 177Lu-complexes in Wistar rats; conditions: for Biodistribution of radioactivity, Adipose tissue / Biodistribution of radioactivity, Adrenal gland / Biodistribution of radioactivity, Blood / Biodistribution of radioactivity, Brain / Biodistribution of radioactivity, Femur / Biodistribution of radioactivity, Harderian gland / Biodistribution of radioactivity, Heart / Biodistribution of radioactivity, Kidneys / Biodistribution of radioactivity, Liver / Biodistribution of radioactivity, Lung / Biodistribution of radioactivity, Muscle / Biodistribution of radioactivity, Pancreas / Biodistribution of radioactivity, Spleen / Biodistribution of radioactivity, Testes / Biodistribution of radioactivity, Thymus: i.v.
Excerpt: (§1) The experiments were realized corresponding to the German animal welfare regulations and institutional guidelines and with the permission of the local animal research committee at the Landesdirektion, Dresden. All experimental procedures are following the guidelines of the European Convention for the Protection of Vertebrate Animals used for Experimental and other Scientific Purposes (ETS No. 123). Male Wistar rats weighing 157.69 ± 17.10 g (mean ± SD, N = 35) were purchased from Unilever (HsdCpb:WU, Harlan Winkelmann, Borchen, Germany). Anesthetization was initiated and maintained by desflurane, and animals were put in the supine position and placed on a heating pad to maintain body temperature. A needle catheter was used for administration of the tracers in the tail vein. A second catheter was introduced into the right femoral artery for the extraction of blood samples for metabolite analysis, which was routinely done during SPECT/CT measurements.
The male Wistar rats received a short-term anesthetization by desflurane inhalation. Mean activities of 2.36 ± 0.27 MBq/kg of the ^177Lu-labelled tracers in isotonic saline were injected in a volume of 0.5 mL in the tail vein, with the following specific details: [^177Lu]citrate: 2.56 ± 0.07 MBq/kg, 128.58 body weight (BW, g), n = 4 (g); [^177Lu]BPAMD: 2.33 ± 0.11 MBq/kg, 159.41 BW (g), n = 4 (g); [^177Lu]BPAPD: 2.58 ± 0.24 MBq/kg, 156.38 BW (g), n = 4 (g); [^177Lu]BPPED: 2.27 ± 0.25 MBq/kg, 153.43 BW (g), n = 4 (g); [^177Lu]NO2AP^BP: 2.52 ± 0.25 MBq/kg, 173.82 BW (g), n = 4 (g); [^177Lu]DOTA(M^BP)2: 1.80 ± 0.10 MBq/kg, 181.64 BW (g), n = 4 (g); [^177Lu]DO2A(P^BP)2: 2.46 ± 0.15 MBq/kg, 150.60 BW (g), n = 4 (g). The compounds [^177Lu]DOTA(M^BP)2, [^177Lu]BPPED, and [^177Lu]BPAMD were further chosen for a biodistribution study after 8 days p.i. A mean activity of 19.0 ± 2.5 MBq/kg was injected. Animals were sacrificed after 5 min, 60 min, and 8 days p.i. Organs of interest were excised rapidly and weighed, and the ^177Lu activity was determined with a Wallac WIZARD automatic gamma counter (PerkinElmer, Germany) and decay corrected. The distribution data are expressed in %ID or are normalized to the BW as standard uptake value (SUV), which was calculated with the formula: SUV = (activity per g tissue)/(injected activity) × BW. The skeleton weight was calculated using the following: skeleton weight = 9.66 + 0.0355 × BW, and the total activities associated with the skeleton were calculated by using the activity concentration in the femur and the total skeleton weight.

[2] = Metabolite analysis and in vivo stability, arterial blood and urine samples; set-up: species or system Wistar rats
Excerpt: as §1
Arterial blood plasma samples were taken during SPECT/CT examinations after 1, 3, 5, 10, 20, 30, 60, and 120 min. p.i., and the in vivo metabolism of [^177Lu]BPAMD, [^177Lu]BPAPD, [^177Lu]BPPED, [^177Lu]NO2AP^BP, [^177Lu]DOTA(M^BP)2, and [^177Lu]DO2A(P^BP)2 was analyzed. Plasma was separated by centrifugation (3 min, 11,000×g) followed by precipitation of the plasma proteins with ice-cold methanol (1.5 parts per 1 part plasma) and centrifugation (3 min, 11,000×g). The supernatants were analyzed by radio-TLC and HPLC using the abovementioned methods for quality control. Additionally, urine samples were treated in the same way prior radio-TLC and radio-HPLC analysis.

[3] = 5 min p.i., mean of four animals
[4] = 60 min p.i., mean of four animals
[5] = 8 days p.i., mean for five animals

O=C(O)CN1CCN(CC(=O)O)CCN(CP(=O)(O)CC(P(=O)(O)O)P(=O)(O)O)CCN(CC(=O)O)CC1 [[^177Lu]BPPED, metal not drawn]
Ratio Bone/Adipose tissue ([1]; 5 min p.i.): 17.3
Ratio Bone/Adrenal gland ([1]; 5 min p.i.): 5.9
Ratio Bone/Blood ([1]; 5 min p.i.): 3.2
Ratio Bone/Brain ([1]; 5 min p.i.): 104.0
Ratio Bone/Harderian gland ([1]; 5 min p.i.): 10.4
Ratio Bone/Heart ([1]; 5 min p.i.): 8.0
Ratio Bone/Kidneys ([1]; 5 min p.i.): 1.3
Ratio Bone/Liver ([1]; 5 min p.i.): 8.7
Ratio Bone/Lung ([1]; 5 min p.i.): 5.5
Ratio Bone/Muscle ([1]; 5 min p.i.): 17.3
Ratio Bone/Pancreas ([1]; 5 min p.i.): 11.2
Ratio Bone/Spleen ([1]; 5 min p.i.): 10.7
Ratio Bone/Testes ([1]; 5 min p.i.): 11.6
Ratio Bone/Thymus ([1]; 5 min p.i.): 10.9
Biodistribution of radioactivity, Adipose tissue [1, 3]: 0.24 SUV
Biodistribution of radioactivity, Adrenal gland [1, 3]: 0.70 SUV
Biodistribution of radioactivity, Blood [1, 3]: 1.30 SUV
Biodistribution of radioactivity, Brain [1, 3]: 0.04 SUV
Biodistribution of radioactivity, Femur [1, 3]: 4.16 SUV
Biodistribution of radioactivity, Harderian gland [1, 3]: 0.40 SUV
Biodistribution of radioactivity, Heart [1, 3]: 0.52 SUV
Biodistribution of radioactivity, Kidneys [1, 3]: 3.09 SUV
Biodistribution of radioactivity, Liver [1, 3]: 0.48 SUV
Biodistribution of radioactivity, Lung [1, 3]: 0.75 SUV
Biodistribution of radioactivity, Muscle [1, 3]: 0.24 SUV
Biodistribution of radioactivity, Pancreas [1, 3]: 0.37 SUV
Biodistribution of radioactivity, Spleen [1, 3]: 0.39 SUV
Biodistribution of radioactivity, Testes [1, 3]: 0.36 SUV
Biodistribution of radioactivity, Thymus [1, 3]: 0.38 SUV
Ratio Bone/Adipose tissue ([1]; 60 min p.i.): 269.7
Ratio Bone/Adrenal gland ([1]; 60 min p.i.): 72.5
Ratio Bone/Blood ([1]; 60 min p.i.): 92.9
Ratio Bone/Brain ([1]; 60 min p.i.): 419.9
Ratio Bone/Harderian gland ([1]; 60 min p.i.): 36.4
Ratio Bone/Heart ([1]; 60 min p.i.): 141.1
Ratio Bone/Kidneys ([1]; 60 min p.i.): 14.9
Ratio Bone/Liver ([1]; 60 min p.i.): 42.3
Ratio Bone/Lung ([1]; 60 min p.i.): 67.5
Ratio Bone/Muscle ([1]; 60 min p.i.): 355.8
Ratio Bone/Pancreas ([1]; 60 min p.i.): 181.6
Ratio Bone/Spleen ([1]; 60 min p.i.): 41.0
Ratio Bone/Testes ([1]; 60 min p.i.): 185.1
Ratio Bone/Thymus ([1]; 60 min p.i.): 212.0
Biodistribution of radioactivity, Adipose tissue [1, 4]: 0.02 SUV
Biodistribution of radioactivity, Adrenal gland [1, 4]: 0.08 SUV
Biodistribution of radioactivity, Blood [1, 4]: 0.06 SUV
Biodistribution of radioactivity, Brain [1, 4]: 0.01 SUV
Biodistribution of radioactivity, Femur [1, 4]: 5.67 ± 0.10 SUV and 5.67 SUV
Biodistribution of radioactivity, Harderian gland [1, 4]: 0.16 SUV
Biodistribution of radioactivity, Heart [1, 4]: 0.04 SUV
Biodistribution of radioactivity, Kidneys [1, 4]: 0.38 SUV
Biodistribution of radioactivity, Liver [1, 4]: 0.13 SUV
Biodistribution of radioactivity, Lung [1, 4]: 0.08 SUV
Biodistribution of radioactivity, Muscle [1, 4]: 0.02 SUV
Biodistribution of radioactivity, Pancreas [1, 4]: 0.03 SUV
Biodistribution of radioactivity, Spleen [1, 4]: 0.14 SUV
Biodistribution of radioactivity, Testes [1, 4]: 0.03 SUV
Biodistribution of radioactivity, Thymus [1, 4]: 0.03 SUV
Ratio Bone/Adipose tissue ([1]; 8 days p.i.): 1231
Ratio Bone/Adrenal gland ([1]; 8 days p.i.): 159
Ratio Bone/Blood ([1]; 8 days p.i.): 5123
Ratio Bone/Brain ([1]; 8 days p.i.): 365
Ratio Bone/Harderian gland ([1]; 8 days p.i.): 46
Ratio Bone/Heart ([1]; 8 days p.i.): 653
Ratio Bone/Kidneys ([1]; 8 days p.i.): 59
Ratio Bone/Liver ([1]; 8 days p.i.): 189
Ratio Bone/Lung ([1]; 8 days p.i.): 637
Ratio Bone/Muscle ([1]; 8 days p.i.): 192
Ratio Bone/Pancreas ([1]; 8 days p.i.): 1104
Ratio Bone/Spleen ([1]; 8 days p.i.): 246
Ratio Bone/Testes ([1]; 8 days p.i.): 1214
Ratio Bone/Thymus ([1]; 8 days p.i.): 933
Biodistribution of radioactivity, Adipose tissue [1, 5]: 0.004 SUV
Biodistribution of radioactivity, Adrenal gland [1, 5]: 0.033 SUV
Biodistribution of radioactivity, Blood [1, 5]: 0.001 SUV
Biodistribution of radioactivity, Brain [1, 5]: 0.014 SUV
Biodistribution of radioactivity, Femur [1, 5]: 5.197 SUV
Biodistribution of radioactivity, Harderian gland [1, 5]: 0.113 SUV
Biodistribution of radioactivity, Heart [1, 5]: 0.008 SUV
Biodistribution of radioactivity, Kidneys [1, 5]: 0.088 SUV
Biodistribution of radioactivity, Liver [1, 5]: 0.027 SUV
Biodistribution of radioactivity, Lung [1, 5]: 0.008 SUV
Biodistribution of radioactivity, Muscle [1, 5]: 0.027 SUV
Biodistribution of radioactivity, Pancreas [1, 5]: 0.005 SUV
Biodistribution of radioactivity, Spleen [1, 5]: 0.021 SUV
Biodistribution of radioactivity, Testes [1, 5]: 0.004 SUV
Biodistribution of radioactivity, Thymus [1, 5]: 0.006 SUV
Total skeletal retention ([1]; 8 days p.i., calculated from femur activity concentration and total skeleton weight): constant over 8 days
Total skeleton retention ([1]; after 60 min, calculated from femur activity concentration and total skeleton weight): 56.3 ± 6.7 %ID
Blood half-life of the slow component (t1/2(β)) ([2]; arterial blood, single intravenous injection): 18.7 min
Metabolization in blood samples (radio-HPLC and TLC) ([2]; within a period of 120 min): no evidence of any metabolization
